Test results published in PMC9963587 (Molecules, 2023).
Entries after “also recorded” stand apart in the source; their conditions may differ. Where two headings read alike, the source gives them in different places.

What was measured:
in vitro = settings: human
[1] = tested on: LASVpv (LASV pseudotyped virus bearing LASV GPC, Josiah strain); assay: microbe, parasite or virus in culture; format: cell-based, Lassa virus
LASV GP2 = LASV GP2 (Lassa virus, UniProt P08669); assay: biochemical; format: binding; settings: for kon: read-out: ka
[2] = tested on: VSV pseudotyped lentivirus (VSVpv); format: cell-based, vesicular stomatitis virus
[3] = Mammarenavirus lassaense, HEK293, 48 h

Chain of LASV GP2 (P08669 260-491 limits assumed): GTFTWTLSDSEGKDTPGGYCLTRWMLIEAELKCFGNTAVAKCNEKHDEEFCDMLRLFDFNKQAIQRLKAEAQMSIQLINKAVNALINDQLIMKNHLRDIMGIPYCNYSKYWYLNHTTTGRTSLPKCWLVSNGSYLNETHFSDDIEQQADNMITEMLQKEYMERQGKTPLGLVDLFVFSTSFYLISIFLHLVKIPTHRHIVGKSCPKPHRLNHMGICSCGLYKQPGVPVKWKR

Compound | CC50 (in vitro) [µM] | IC50 [1, 3] [µM] | melting point [°C] | Kd (LASV GP2) [µM] | kd (LASV GP2) [s⁻¹] | kon (LASV GP2) [M⁻¹ s⁻¹] | IC50 [1] [µM] | antiviral effect against VSVpv infection [2] | inhibition of LASVpv infection (EGFP expression) [1] | ka (LASV GP2) [M⁻¹ s⁻¹] | Kd (LASV GP2; read-out: KD) [µM] | IC50 ([1]; read-out: IC50) [µM] | CC50 (HEK-293 cells) [µM]
CC(C)Oc1ccc(-n2cnc3cc(/C=C/c4ccc(C(C)(C)C)cc4)ccc32)cc1 [Compound 7a−E, (E)-5-(4-(tert-butyl)styryl)-1-(4-isopropoxyphenyl)-1H-benzo[d]imidazole] | > 100 | > 0.05 | 161 to 162 |  |  |  |  |  |  |  |  |  | 
CC(C)Oc1ccc(-n2cnc3cc(/C=C\c4ccc(C(C)(C)C)cc4)ccc32)cc1 [Compound 7a−Z, (Z)-5-(4-(tert-butyl)styryl)-1-(4-isopropoxyphenyl)-1H-benzo[d]imidazole] | 3.01 |  | 172 to 174 | 0.146 | 0.04 | 328000 |  |  |  |  |  |  | 
CC(C)Oc1ccc(-n2cnc3cc(/C=C/c4ccc(C#N)cc4)ccc32)cc1 [Compound 7b−E, (E)-4-(2-(1-(4-isopropoxyphenyl)-1H-benzo[d]imidazol-5-yl)vinyl) benzonitrile] | > 100 | > 0.05 | 161 to 162 |  |  |  |  |  |  |  |  |  | 
CC(C)Oc1ccc(-n2cnc3cc(/C=C\c4ccc(C#N)cc4)ccc32)cc1 [Compound 7b−Z, (Z)-4-(2-(1-(4-isopropoxyphenyl)-1H-benzo[d]imidazol-5-yl)vinyl) benzonitrile] | 23.6 | > 0.05 | 165 to 166 | 73.4 | 0.28 | 3910 |  |  |  |  |  |  | 
Cc1ccc(/C=C/c2ccc3c(c2)ncn3-c2ccc(OC(C)C)cc2)cc1 [Compound 7c−E, (E)-1-(4-isopropoxyphenyl)-5-(4-methylstyryl)-1H-benzo[d]imidazole] | > 100 | > 0.05 | 168 to 170 |  |  |  |  |  |  |  |  |  | 
Cc1ccc(/C=C\c2ccc3c(c2)ncn3-c2ccc(OC(C)C)cc2)cc1 [Compound 7c−Z, (Z)-1-(4-isopropoxyphenyl)-5-(4-methylstyryl)-1H-benzo[d]imidazole] | 20.9 | 0.0369 | 168 to 169 | 1.18 | 0.07 | 65600 |  |  |  |  |  |  | 
CCOc1ccc(/C=C/c2ccc3c(c2)ncn3-c2ccc(OC(C)C)cc2)cc1 [Compound 7d−E, (E)-5-(4-ethoxystyryl)-1-(4-isopropoxyphenyl)-1H-benzo[d]imidazole] | > 100 | > 0.05 | 152 to 153 |  |  |  |  |  |  |  |  |  | 
CCOc1ccc(/C=C\c2ccc3c(c2)ncn3-c2ccc(OC(C)C)cc2)cc1 [Compound 7d−Z, (Z)-5-(4-ethoxystyryl)-1-(4-isopropoxyphenyl)-1H-benzo[d]imidazole] | 17 | ≤ 0.015 | 161 to 162 | 0.307 | 0.02 | 86500 | 0.0136 |  |  |  |  |  | 
CC(C)Oc1ccc(-n2cnc3cc(/C=C/c4ccc(OC(F)F)cc4)ccc32)cc1 [Compound 7e−E, (E)-5-(4-(difluoromethoxy)styryl)-1-(4-isopropoxyphenyl)-1H-benzo[d]imidazole] | > 100 | > 0.05 | 173 to 174 |  |  |  |  |  |  |  |  |  | 
CC(C)Oc1ccc(-n2cnc3cc(/C=C\c4ccc(OC(F)F)cc4)ccc32)cc1 [Compound 7e−Z, (Z)-5-(4-(difluoromethoxy)styryl)-1-(4-isopropoxyphenyl)-1H-benzo[d]imidazole] | 17.9 | 0.0344 | 173 to 174 | 1.98 | 0.08 | 43400 |  |  |  |  |  |  | 
CC(C)Oc1ccc(-n2cnc3cc(/C=C/c4ccc(OC(F)(F)F)cc4)ccc32)cc1 [Compound 7f−E, (E)-1-(4-isopropoxyphenyl)-5-(4-(trifluoromethoxy)styryl)-1H-benzo[d]imidazole] | > 100 | > 0.05 | 160 to 162 |  |  |  |  |  |  |  |  |  | 
CC(C)Oc1ccc(-n2cnc3cc(/C=C\c4ccc(OC(F)(F)F)cc4)ccc32)cc1 [Compound 7f−Z, (Z)-1-(4-isopropoxyphenyl)-5-(4-(trifluoromethoxy)styryl)-1H-benzo[d]imidazole] | 9.47 | 0.0339 | 161 to 162 | 2.19 | 0.03 | 15600 |  |  |  |  |  |  | 
CC(C)Oc1ccc(-n2cnc3cc(/C=C/c4ccc(C(F)(F)F)cc4)ccc32)cc1 [Compound 7g−E, (E)-1-(4-isopropoxyphenyl)-5-(4-(trifluoromethyl)styryl)-1H-benzo[d]imidazole] | > 100 | > 0.05 | 166 to 167 |  |  |  |  |  |  |  |  |  | 
CC(C)Oc1ccc(-n2cnc3cc(/C=C\c4ccc(C(F)(F)F)cc4)ccc32)cc1 [Compound 7g−Z, (Z)-1-(4-isopropoxyphenyl)-5-(4-(trifluoromethyl)styryl)-1H-benzo[d]imidazole] | 24.4 | 0.0291 | 165 to 166 | 2.7 | 0.13 |  |  |  |  |  |  |  | 
CC(C)Oc1ccc(-n2cnc3cc(/C=C/c4ccc5ccccc5c4)ccc32)cc1 [Compound 7h−E, (E)-1-(4-isopropoxyphenyl)-5-(2-(naphthalen-2-yl)vinyl)-1H-benzo[d]imidazole] | > 100 | > 0.05 | 172 to 173 |  |  |  |  |  |  |  |  |  | 
CC(C)Oc1ccc(-n2cnc3cc(/C=C\c4ccc5ccccc5c4)ccc32)cc1 [Compound 7h−Z, (Z)-1-(4-isopropoxyphenyl)-5-(2-(naphthalene-2-yl)vinyl)-1H-benzo[d]imidazole] | 18.9 | ≤ 0.015 | 170 to 171 | 0.129 | 0.03 | 294000 | 0.00758 |  |  |  |  |  | 
COc1ccc(-n2cnc3cc(NCc4ccc(OC)c(O)c4)ccc32)cc1 [Compound 13a, 2-methoxy-5-(((1-(4-methoxyphenyl)-1H-benzo[d]imidazol-5-yl)amino)methyl)phenol] | 62.6 | 0.0476 | 182.1 to 183.3 | 2.78 | 0.03 | 13200 |  |  |  |  |  |  | 
COc1ccc(-n2cnc3cc(NCc4ccc(O)c(OC)c4)ccc32)cc1 [Compound 13b, 2-methoxy-4-(((1-(4-methoxyphenyl)-1H-benzo[d]imidazol-5-yl)amino)methyl)phenol] | 87.3 | 0.0658 | 157.6 to 159 | 3.93 | 0.20 | 52300 |  |  |  |  |  |  | 
COc1ccc(-n2cnc3cc(NCc4cc(OC)c(OC)cc4OC)ccc32)cc1 [Compound 13d, 1-(4-methoxyphenyl)-N-(2,4,5-trimethoxybenzyl)-1H-benzo[d]imidazol-5-amine] | 135 | 0.0138 | 167.8 to 169.8 | 0.656 | 0.03 | 56700 |  |  |  |  |  |  | 
COc1ccc(-n2cnc3cc(NCc4cc(OC)c(O)c(OC)c4)ccc32)cc1 [Compound 13e, 2,6-dimethoxy-4-(((1-(4-methoxyphenyl)-1H-benzo[d]imidazol-5-yl)amino)methyl)phenol] | 88.8 | 0.0505 | 115.7 to 118.1 | 4.39 | 0.22 | 50300 |  |  |  |  |  |  | 
COc1ccc(-n2cnc3cc(NCc4ccc(C(C)(C)C)cc4)ccc32)cc1 [Compound 13f, N-(4-(tert-butyl)benzyl)-1-(4-methoxyphenyl)-1H-benzo[d]imidazol-5-amine] | 102 | 0.0119 | 175.8 to 176.9 | 0.173 | 0.03 | 178000 |  |  |  |  |  |  | 
COc1ccc(CNc2ccc3c(c2)ncn3-c2ccc(OC)cc2)cc1 [Compound 13g, N-(4-methoxybenzyl)-1-(4-methoxyphenyl)-1H-benzo[d]imidazol-5-amine] | 100 | 0.0554 | 128 to 129.3 | 4.69 | 0.30 | 65900 |  |  |  |  |  |  | 
COc1ccc(-n2cnc3cc(NCc4cccc(O)c4)ccc32)cc1 [Compound 13h, 3-(((1-(4-methoxyphenyl)-1H-benzo[d]imidazol-5-yl)amino)methyl)phenol] | 40.3 | > 0.1 | 182.9 to 184.3 | 36 | 0.42 | 11900 |  |  |  |  |  |  | 
COc1ccc(-n2cnc3cc(NCc4ccc(Cl)c(Cl)c4)ccc32)cc1 [Compound 13i, N-(3,4-dichlorobenzyl)-1-(4-methoxyphenyl)-1H-benzo[d]imidazol-5-amine] | 81.7 | 0.0532 | 134.1 to 135.8 | 25.4 | 0.49 | 19400 |  |  |  |  |  |  | 
COc1ccc(-n2cnc3cc(NCc4ccc(C(F)(F)F)cc4)ccc32)cc1 [Compound 13j, 1-(4-methoxyphenyl)-N-(4-(trifluoromethyl)benzyl)-1H-benzo[d]imidazol-5-amine] | 109 | 0.0638 | 198.3 to 200.5 | 5.49 | 0.04 | 8530 |  |  |  |  |  |  | 
CC(C)Oc1ccc(-n2cnc3cc(/C=C\c4ccc(C(C)(C)O)cc4)ccc32)cc1 [LHF−535, reference compound] | 3.68 | 0.00304 |  | 0.114 | 0.03 | 304000 |  | little or no effect; also recorded: did not exhibit an antiviral effect | concentration-dependent |  |  |  | 
COc1ccc(-n2cnc3cc(NCc4ccc(C(C)C)cc4)ccc32)cc1 [ST−193, reference compound] | 56.3 | 0.0445 |  | 0.2 | 0.01 | 83200 |  |  |  |  |  |  | 
N-(2, 4-dimethoxybenzyl)-1-(4-methoxyphenyl)-1H-benzo[d]imidazol-5-amine [Compound 13c] |  |  |  |  | 0.03 |  |  |  |  | 39500 | 0.825 | 0.0155 | 74.2
